Reference: patent publication US10168342B2, “Lipid probes and uses thereof” (THE SCRIPPS RESEARCH INSTITUTE, priority 2015, dated 2019)

What was measured:
Experiment in all cases: isoTOP-ABPP mapping of AEA-DA-modified peptides in Neuro2a cells
Format in all cases: cell-based
[1] = target: T1, AEA-DA-modified peptides in Neuro2a cells (Mus musculus, UniProt O35459); details: probe 100 μM, 12 replicates
T1 construct: endogenous in cells; host or cells: Neuro2a

[2] = target: T2, AEA-DA-modified peptides in Neuro2a cells (Mus musculus, UniProt O55234); details: AEA-DA-modified peptide PSMB5 O55234 141-151, SEQ ID NO 91; probe 100 μM, 12 replicates
T2 construct: endogenous in cells; host or cells: Neuro2a

[3] = target: T3, AEA-DA-modified peptides in Neuro2a cells (Mus musculus, UniProt P08113); details: AEA-DA-modified peptide HSP90B1 P08113 664-672, SEQ ID NO 51; probe 100 μM, 12 replicates
T3 construct: endogenous in cells; host or cells: Neuro2a

[4] = target: T4, AEA-DA-modified peptides in Neuro2a cells (Mus musculus, UniProt P15626); details: AEA-DA-modified peptide GSTM2 P15626 109-123, SEQ ID NO 45; probe 100 μM, 12 replicates
T4 construct: endogenous in cells; host or cells: Neuro2a

[5] = target: T5, AEA-DA-modified peptides in Neuro2a cells (Mus musculus, UniProt P52825); details: AEA-DA-modified peptide CPT2 P52825 363-383, SEQ ID NO 26; probe 100 μM, 12 replicates
T5 construct: endogenous in cells; host or cells: Neuro2a

[6] = target: T6, AEA-DA-modified peptides in Neuro2a cells (Mus musculus, UniProt P62814); details: AEA-DA-modified peptide ATP6V1B2 P62814 68-82, SEQ ID NO 20; probe 100 μM, 12 replicates
T6 construct: endogenous in cells; host or cells: Neuro2a

[7] = target: T7, AEA-DA-modified peptides in Neuro2a cells (Mus musculus, UniProt Q64310); details: probe 100 μM, 12 replicates
T7 construct: endogenous in cells; host or cells: Neuro2a

[8] = target: T8, AEA-DA-modified peptides in Neuro2a cells (Mus musculus, UniProt Q8BKE6); details: AEA-DA-modified peptide CYP20A1 Q8BKE6 397-414, SEQ ID NO 29; probe 100 μM, 12 replicates
T8 construct: endogenous in cells; host or cells: Neuro2a

[9] = target: T9, AEA-DA-modified peptides in Neuro2a cells (Mus musculus, UniProt Q8BMG8); details: AEA-DA-modified peptide SLC25A32 Q8BMG8 115-146, SEQ ID NO 104; probe 100 μM, 12 replicates
T9 construct: endogenous in cells; host or cells: Neuro2a

[10] = target: T10, AEA-DA-modified peptides in Neuro2a cells (Mus musculus, UniProt Q8C4B4); details: AEA-DA-modified peptide UNC119B Q8C4B4 142-151, SEQ ID NO 118; probe 100 μM, 12 replicates
T10 construct: endogenous in cells; host or cells: Neuro2a

[11] = target: T11, AEA-DA-modified peptides in Neuro2a cells (Mus musculus, UniProt Q99KQ4); details: probe 100 μM, 12 replicates
T11 construct: endogenous in cells; host or cells: Neuro2a
T11 sequence (Q99KQ4 whole entry): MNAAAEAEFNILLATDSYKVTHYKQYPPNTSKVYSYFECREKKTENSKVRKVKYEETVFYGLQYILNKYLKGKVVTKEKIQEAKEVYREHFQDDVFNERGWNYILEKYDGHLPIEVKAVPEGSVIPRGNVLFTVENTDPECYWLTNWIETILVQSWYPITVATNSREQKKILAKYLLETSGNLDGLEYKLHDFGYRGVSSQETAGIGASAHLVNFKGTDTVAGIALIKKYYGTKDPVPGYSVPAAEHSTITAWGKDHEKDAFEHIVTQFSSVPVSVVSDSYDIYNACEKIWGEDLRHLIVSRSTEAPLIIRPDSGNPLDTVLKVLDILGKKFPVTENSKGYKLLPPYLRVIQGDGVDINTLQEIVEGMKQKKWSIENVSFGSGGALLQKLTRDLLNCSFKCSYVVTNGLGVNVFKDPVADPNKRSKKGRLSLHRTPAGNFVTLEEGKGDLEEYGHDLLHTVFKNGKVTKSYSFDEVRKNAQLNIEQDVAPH

T7 sequence (Q64310 whole entry): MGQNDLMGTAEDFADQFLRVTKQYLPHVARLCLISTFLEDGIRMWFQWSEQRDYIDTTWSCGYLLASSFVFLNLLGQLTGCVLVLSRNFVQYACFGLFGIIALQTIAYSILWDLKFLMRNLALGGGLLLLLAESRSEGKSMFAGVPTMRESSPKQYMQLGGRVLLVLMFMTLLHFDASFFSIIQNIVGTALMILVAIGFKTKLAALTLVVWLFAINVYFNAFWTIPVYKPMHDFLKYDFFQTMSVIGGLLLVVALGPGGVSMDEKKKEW
T1 sequence (O35459 34-327): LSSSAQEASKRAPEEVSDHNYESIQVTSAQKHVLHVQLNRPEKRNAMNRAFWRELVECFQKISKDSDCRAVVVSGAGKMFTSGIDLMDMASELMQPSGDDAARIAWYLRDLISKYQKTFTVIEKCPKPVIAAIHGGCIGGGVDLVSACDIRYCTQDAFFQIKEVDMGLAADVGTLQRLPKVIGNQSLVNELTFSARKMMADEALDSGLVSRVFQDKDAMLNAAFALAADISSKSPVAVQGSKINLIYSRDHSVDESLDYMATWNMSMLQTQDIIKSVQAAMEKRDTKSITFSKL
T3 sequence (P08113 22-802): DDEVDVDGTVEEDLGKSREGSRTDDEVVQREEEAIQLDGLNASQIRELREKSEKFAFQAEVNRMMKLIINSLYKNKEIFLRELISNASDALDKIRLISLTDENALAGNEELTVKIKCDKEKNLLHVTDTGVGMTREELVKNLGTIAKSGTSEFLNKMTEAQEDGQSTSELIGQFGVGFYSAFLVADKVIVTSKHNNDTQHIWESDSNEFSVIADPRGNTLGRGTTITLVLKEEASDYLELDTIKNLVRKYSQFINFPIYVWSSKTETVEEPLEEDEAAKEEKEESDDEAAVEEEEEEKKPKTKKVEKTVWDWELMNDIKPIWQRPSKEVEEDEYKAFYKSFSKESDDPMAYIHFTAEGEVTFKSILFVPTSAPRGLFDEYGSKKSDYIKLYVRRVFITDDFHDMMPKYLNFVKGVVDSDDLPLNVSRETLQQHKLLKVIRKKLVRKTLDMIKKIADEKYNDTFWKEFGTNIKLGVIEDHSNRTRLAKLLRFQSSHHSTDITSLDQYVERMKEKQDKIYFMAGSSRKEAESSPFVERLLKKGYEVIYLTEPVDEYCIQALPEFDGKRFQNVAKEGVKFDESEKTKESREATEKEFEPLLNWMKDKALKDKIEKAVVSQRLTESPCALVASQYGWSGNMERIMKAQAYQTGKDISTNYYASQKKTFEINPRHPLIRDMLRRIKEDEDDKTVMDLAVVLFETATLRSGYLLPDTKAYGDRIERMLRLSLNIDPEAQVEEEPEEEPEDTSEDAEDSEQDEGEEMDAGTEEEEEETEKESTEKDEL
T2 sequence (O55234 60-264): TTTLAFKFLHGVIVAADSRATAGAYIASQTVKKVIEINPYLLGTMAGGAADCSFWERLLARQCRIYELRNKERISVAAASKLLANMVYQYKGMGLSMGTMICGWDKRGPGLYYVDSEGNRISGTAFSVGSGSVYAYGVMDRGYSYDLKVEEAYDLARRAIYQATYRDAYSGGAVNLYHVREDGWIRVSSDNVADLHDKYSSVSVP
T9 sequence (Q8BMG8 whole entry): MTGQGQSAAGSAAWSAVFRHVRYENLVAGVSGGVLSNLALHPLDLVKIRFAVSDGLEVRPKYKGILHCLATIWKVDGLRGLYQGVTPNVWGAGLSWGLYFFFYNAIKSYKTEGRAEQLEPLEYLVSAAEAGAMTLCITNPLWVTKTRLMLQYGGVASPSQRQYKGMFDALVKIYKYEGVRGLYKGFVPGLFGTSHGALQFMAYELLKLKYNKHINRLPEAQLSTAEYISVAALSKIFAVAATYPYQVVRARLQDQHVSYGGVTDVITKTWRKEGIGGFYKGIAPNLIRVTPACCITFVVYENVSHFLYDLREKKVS
T4 sequence (P15626 whole entry): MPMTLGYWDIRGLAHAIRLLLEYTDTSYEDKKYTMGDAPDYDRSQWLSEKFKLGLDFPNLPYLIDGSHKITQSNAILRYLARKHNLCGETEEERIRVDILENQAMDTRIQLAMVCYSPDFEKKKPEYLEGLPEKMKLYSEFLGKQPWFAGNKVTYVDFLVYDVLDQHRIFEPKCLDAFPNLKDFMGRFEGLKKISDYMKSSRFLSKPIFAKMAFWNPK
T5 sequence (P52825 26-658): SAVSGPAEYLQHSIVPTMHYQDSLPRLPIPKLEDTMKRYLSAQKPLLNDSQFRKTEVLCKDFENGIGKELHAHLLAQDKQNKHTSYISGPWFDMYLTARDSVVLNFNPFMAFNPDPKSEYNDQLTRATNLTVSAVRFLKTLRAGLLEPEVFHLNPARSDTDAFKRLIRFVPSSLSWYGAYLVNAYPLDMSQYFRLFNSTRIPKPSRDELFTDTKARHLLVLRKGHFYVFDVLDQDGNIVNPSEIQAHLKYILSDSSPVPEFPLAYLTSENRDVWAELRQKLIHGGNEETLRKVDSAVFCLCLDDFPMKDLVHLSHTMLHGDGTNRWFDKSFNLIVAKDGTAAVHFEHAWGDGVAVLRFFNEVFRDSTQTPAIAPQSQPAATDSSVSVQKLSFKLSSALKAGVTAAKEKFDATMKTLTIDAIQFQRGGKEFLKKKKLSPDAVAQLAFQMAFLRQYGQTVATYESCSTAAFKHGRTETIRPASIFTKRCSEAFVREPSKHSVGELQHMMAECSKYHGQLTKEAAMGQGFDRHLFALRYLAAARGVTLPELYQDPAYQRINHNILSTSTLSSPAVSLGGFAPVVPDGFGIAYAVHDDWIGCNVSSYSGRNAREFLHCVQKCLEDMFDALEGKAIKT
T6 sequence (P62814 whole entry): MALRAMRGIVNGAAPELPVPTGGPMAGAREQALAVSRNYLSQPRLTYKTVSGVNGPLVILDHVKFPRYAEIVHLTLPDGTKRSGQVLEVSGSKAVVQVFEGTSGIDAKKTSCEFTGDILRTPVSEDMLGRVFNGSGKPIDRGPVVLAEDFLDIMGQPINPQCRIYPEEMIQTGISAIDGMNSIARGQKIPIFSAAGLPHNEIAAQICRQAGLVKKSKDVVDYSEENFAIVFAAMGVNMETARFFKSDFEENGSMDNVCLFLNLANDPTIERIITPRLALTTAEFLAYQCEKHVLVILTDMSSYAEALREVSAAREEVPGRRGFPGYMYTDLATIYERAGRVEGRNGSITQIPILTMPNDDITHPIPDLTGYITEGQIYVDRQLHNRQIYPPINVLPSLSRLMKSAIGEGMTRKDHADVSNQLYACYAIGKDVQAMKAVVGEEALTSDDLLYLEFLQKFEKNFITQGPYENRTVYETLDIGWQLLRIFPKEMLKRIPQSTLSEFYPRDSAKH
T8 sequence (Q8BKE6 whole entry): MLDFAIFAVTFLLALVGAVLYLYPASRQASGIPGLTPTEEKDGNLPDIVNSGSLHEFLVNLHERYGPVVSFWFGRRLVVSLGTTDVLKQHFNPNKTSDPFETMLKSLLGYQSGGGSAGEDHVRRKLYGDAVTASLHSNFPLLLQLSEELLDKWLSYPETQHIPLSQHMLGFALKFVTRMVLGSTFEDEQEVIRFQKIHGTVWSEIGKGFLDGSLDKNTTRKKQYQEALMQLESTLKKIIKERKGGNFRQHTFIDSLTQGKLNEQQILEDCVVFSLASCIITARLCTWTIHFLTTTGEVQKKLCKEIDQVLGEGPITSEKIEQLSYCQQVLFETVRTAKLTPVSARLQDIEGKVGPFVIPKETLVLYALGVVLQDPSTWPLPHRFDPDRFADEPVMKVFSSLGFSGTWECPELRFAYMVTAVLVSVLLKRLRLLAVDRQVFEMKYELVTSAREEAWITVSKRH
T10 sequence (Q8C4B4 whole entry): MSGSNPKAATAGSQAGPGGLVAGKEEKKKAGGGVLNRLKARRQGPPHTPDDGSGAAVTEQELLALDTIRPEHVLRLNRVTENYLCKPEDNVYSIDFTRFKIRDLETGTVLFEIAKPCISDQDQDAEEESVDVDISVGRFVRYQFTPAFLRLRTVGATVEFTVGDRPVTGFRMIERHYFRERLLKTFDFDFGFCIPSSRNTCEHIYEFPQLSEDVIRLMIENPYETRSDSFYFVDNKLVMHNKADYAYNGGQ

## C#CCCCC1(CC/C=C\C/C=C\C/C=C\CCCC(=O)NCCO)N=N1 [AEA-DA, (5Z,8Z,11Z)-N-(2-hydroxyethyl)-14-(3-(pent-4-yn-1-yl)-3H-diazirin-3-yl)tetradeca-5,8,11-trienamide]
[1]; AEA-DA-modified peptide ECH1 O35459 185-211, SEQ ID NO 32
  Times observed: 4
[1]; AEA-DA-modified peptide ECH1 O35459 196-211, SEQ ID NO 33
  Times observed: 8
[2]
  Times observed: 11
[3]
  Times observed: 4
[4]
  Times observed: 5
[5]
  Times observed: 6
[6]
  Times observed: 3
[7]; AEA-DA-modified peptide SURF4 Q64310 2-20, SEQ ID NO 108
  Times observed: 10
[7]; AEA-DA-modified peptide SURF4 Q64310 31-44, SEQ ID NO 109
  Times observed: 3
[8]
  Times observed: 8
[9]
  Times observed: 6
[10]
  Times observed: 3
[11]; AEA-DA-modified peptide NAMPT Q99KQ4 175-190, SEQ ID NO 64
  Times observed: 10
[11]; AEA-DA-modified peptide NAMPT Q99KQ4 303-324, SEQ ID NO 65
  Times observed: 2
